The experiment concerns the target T1, human A2A adenosine receptor (Homo sapiens, UniProt P29274).
T1 construct: expressed in transfected cells; host or cells: HEK293 or CHO cells
Nature of the experiment: A2A binding affinity, Method (B): scintillation proximity assay (SPA) with [3H]SCH58261. The note with it: membranes of HEK293 or CHO cells expressing the human receptor. The source says:
Method (A) describes the procedure used to measure A2A binding affinity using radioligand binding. Method (B) describes the procedure used to measure A2A binding affinity using SPA technology. The method used to measure A2B binding affinity is also described below. The method used to determine the A2A IC50 value reported for each compound in the table is indicated next to the reported value. The A2B IC50 value measured using the A2B binding affinity assay is shown in the table next to the compound under the corresponding A2A value.
The A2A receptor affinity binding assay measured the amount of binding of a tritiated ligand with high affinity for the A2A adenosine receptor to membranes made from HEK293 or CHO cells recombinantly expressing the human A2A adenosine receptor, in the presence of varying concentrations of a compound of the invention. The data were generated using either filtration binding or a homogenous scintillation proximity assay (SPA).
Method (B): Measurement of A2A Binding Affinity Using SPA
Binding affinity using SPA was conducted as follows. Test compounds (50 nL) were dispensed into individual wells of a 384-well OptiPlate™ well (Perkin Elmer) by Echo® acoustic liquid transfer (Labcyte). 20 µL of 1.25 nM [^3H] SCH58261 ((7-(2-phenylethyl)-5-amino-2-(2-furyl)-pyrazolo-[4,3-e]-1,2,4-triazolo[1,5-c]pyrimidine)) in DPBS assay buffer (Dulbecco’s phosphate buffered saline without calcium and magnesium, ThermoFisher Scientific, Cat. No. A1285601) supplemented with 10 mM MgCl2 was added. A2A receptor-expressing membranes were incubated with 20 µg/mL adenosine deaminase (Roche, Cat. No. 10 102 105 001) for 15 min at room temperature. The receptor-expressing membranes were then combined with wheat germ agglutinin-coated yttrium silicate SPA beads (GE Healthcare, Cat. No. RPNQ0023) in a ratio of […] (w/w) and incubated for 30 min at room temperature. 30 µL of the membrane/bead mixture (0.25 µg and 25 µg per well respectively) were added to the 384-well OptiPlate™ well. To define total and non-specific binding, wells containing 1% DMSO or 1 µM CGS 15943 (Tocris Bioscience, Cat. No. 1699) respectively were also included in the experiment. The plate was incubated for 1 h at room temperature with agitation. The assay plate was then incubated for an h to allow the beads to settle before data were collected using a TopCount® (Perkin Elmer) scintillation counter. After normalization to total and non-specific binding, the percent effect at each compound concentration was calculated. The plot of percent effect versus the log of compound concentration was analyzed electronically using a 4-parameter logistic fit based on the Levenberg-Marquardt algorithm to generate IC50 values.
T1 sequence (P29274 whole entry): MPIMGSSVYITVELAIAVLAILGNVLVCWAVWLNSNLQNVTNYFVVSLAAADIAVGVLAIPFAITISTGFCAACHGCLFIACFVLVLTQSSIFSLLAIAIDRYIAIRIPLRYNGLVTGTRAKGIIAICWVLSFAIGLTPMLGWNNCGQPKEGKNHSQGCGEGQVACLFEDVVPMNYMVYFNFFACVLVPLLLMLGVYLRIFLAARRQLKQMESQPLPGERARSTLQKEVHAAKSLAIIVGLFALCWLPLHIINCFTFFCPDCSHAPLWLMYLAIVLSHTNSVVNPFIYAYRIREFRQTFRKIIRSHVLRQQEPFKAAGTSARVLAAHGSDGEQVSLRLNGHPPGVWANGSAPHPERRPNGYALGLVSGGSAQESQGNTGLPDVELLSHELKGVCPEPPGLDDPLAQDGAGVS
For `COCCN(CCc1ccc(C(F)(F)F)cc1)Cc1nc2c3cccc(OC)c3nc(N)n2n1` [Example 15.14, 7-methoxy-2-(((2-methoxyethyl)(4-(trifluoromethyl)phenethyl)amino)methyl)-[1,2,4]triazolo[1,5-c]quinazolin-5-amine], the IC50 – broadly, the concentration that inhibits the measured activity by half – turned out to be 16.5 nM. As for `COCCN(Cc1ccc(C(F)(F)F)cc1)Cc1nc2c3cccc(OC)c3nc(N)n2n1` [Example 15.15, 7-methoxy-2-(((2-methoxyethyl)(4-(trifluoromethyl)benzyl)amino)methyl)-[1,2,4]triazolo[1,5-c]quinazolin-5-amine], the figure is 6.6 nM; as for `CCN(Cc1nc2c3cccc(OC)c3nc(N)n2n1)CC1CCN(c2ncc(F)cn2)CC1` [Example 15.16, 2-((ethyl((1-(5-fluoropyrimidin-2-yl)piperidin-4-yl)methyl)amino)methyl)-7-methoxy-[1,2,4]triazolo[1,5-c]quinazolin-5-amine], 31 nM.

`COc1cccc2c1nc(N)n1nc(CN(Cc3ccc(Br)cc3)CC3CC3)nc21` [Example 15.17, 2-(((4-bromobenzyl)(cyclopropylmethyl)amino)methyl)-7-methoxy-[1,2,4]triazolo[1,5-c]quinazolin-5-amine] displayed an IC50 of 3.2 nM. As for `COc1cccc2c1nc(N)n1nc(CN(Cc3ccccn3)CC3CC3)nc21` [Example 16.1, 2-(((cyclopropylmethyl)(pyridin-2-ylmethyl)amino)methyl)-7-methoxy-[1,2,4]triazolo[1,5-c]quinazolin-5-amine], the figure is 12.8 nM. For `COc1cccc2c1nc(N)n1nc(CN(Cc3cccnc3)CC3CC3)nc21` [Example 16.2, 2-(((cyclopropylmethyl)(pyridin-3-ylmethyl)amino)methyl)-7-methoxy-[1,2,4]triazolo[1,5-c]quinazolin-5-amine], the IC50 worked out at 5.3 nM. In turn, `COc1cccc2c1nc(N)n1nc(CN(Cc3cccc(Br)n3)CC3CC3)nc21` [Example 16.3, 2-((((6-bromopyridin-2-yl)methyl)(cyclopropylmethyl)amino)methyl)-7-methoxy-[1,2,4]triazolo[1,5-c]quinazolin-5-amine] came in with an IC50 of 14.6 nM. In the case of `COc1cccc2c1nc(N)n1nc(CN(Cc3ccc(N4CCOCC4)nc3)CC3CC3)nc21` [Example 16.4, 2-(((cyclopropylmethyl)((6-morpholinopyridin-3-yl)methyl)amino)methyl)-7-methoxy-[1,2,4]triazolo[1,5-c]quinazolin-5-amine], the IC50 came out at 10.9 nM. With `COc1ccc(CN(Cc2nc3c4cccc(OC)c4nc(N)n3n2)CC2CC2)cn1` [Example 16.5, 2-(((cyclopropylmethyl)((6-methoxypyridin-3-yl)methyl)amino)methyl)-7-methoxy-[1,2,4]triazolo[1,5-c]quinazolin-5-amine] the figure was 9.2 nM.

For `COc1cccc2c1nc(N)n1nc(CN(Cc3ccc(OC4CCCCC4)nc3)CC3CC3)nc21` [Example 16.6, 2-((((6-(cyclohexyloxy)pyridin-3-yl)methyl)(cyclopropylmethyl)amino)methyl)-7-methoxy-[1,2,4]triazolo[1,5-c]quinazolin-5-amine], the IC50 came out at 6.6 nM. Take `COc1cccc2c1nc(N)n1nc(CN(Cc3ccc(OC(C)C)nc3)CC3CC3)nc21` [Example 16.7, 2-(((cyclopropylmethyl)((6-isopropoxypyridin-3-yl)methyl)amino)methyl)-7-methoxy-[1,2,4]triazolo[1,5-c]quinazolin-5-amine]: the IC50 was determined as 13.5 nM. `COc1cccc2c1nc(N)n1nc(CN(Cc3ccc(C(F)(F)F)nc3)CC3CC3)nc21` [Example 16.8, 2-(((cyclopropylmethyl)((6-(trifluoromethyl)pyridin-3-yl)methyl)amino)methyl)-7-methoxy-[1,2,4]triazolo[1,5-c]quinazolin-5-amine] yielded an IC50 of 24.1 nM. `COc1cccc2c1nc(N)n1nc(CN(Cc3ccc(NC(=O)C(C)(C)C)nc3)CC3CC3)nc21` [Example 16.9]: the IC50 is 5.2 nM.

Compound `COc1cccc2c1nc(N)n1nc(CN(Cc3ccnc4[nH]ccc34)CC3CC3)nc21` [Example 16.10, 2-((((1H-pyrrolo[2,3-b]pyridin-4-yl)methyl)(cyclopropylmethyl)amino)methyl)-7-methoxy-[1,2,4]triazolo[1,5-c]quinazolin-5-amine] had an IC50 of 2.3 nM. With `COc1cccc2c1nc(N)n1nc(CN(Cc3ncco3)CC3CC3)nc21` [Example 16.11, 2-(((cyclopropylmethyl)(oxazol-2-ylmethyl)amino)methyl)-7-methoxy-[1,2,4]triazolo[1,5-c]quinazolin-5-amine] the figure was 9.4 nM.

Turning to `COc1cccc2c1nc(N)n1nc(CN(CC3CC3)C3CN(C(=O)OC(C)(C)C)C3)nc21` [Example 16.12, tert-butyl 3-(((5-amino-7-methoxy-[1,2,4]triazolo[1,5-c]quinazolin-2-yl)methyl)(cyclopropylmethyl)amino)azetidine-1-carboxylate], the IC50 is 5.7 nM. As for `COc1cccc2c1nc(N)n1nc(CN(Cc3ccc(-c4ccccn4)cc3)CC3CC3)nc21` [Example 16.13, 2-(((cyclopropylmethyl)(4-(pyridin-2-yl)benzyl)amino)methyl)-7-methoxy-[1,2,4]triazolo[1,5-c]quinazolin-5-amine], the figure is 2.6 nM. In the case of `COc1ccc(CN(Cc2nc3c4cccc(OC)c4nc(N)n3n2)CC2CC2)cc1` [Example 16.14, 2-(((cyclopropylmethyl)(4-methoxybenzyl)amino)methyl)-7-methoxy-[1,2,4]triazolo[1,5-c]quinazolin-5-amine], the half-maximal inhibitory concentration (IC50) is 7.2 nM. The compound `COc1cccc(CN(Cc2nc3c4cccc(OC)c4nc(N)n3n2)CC2CC2)c1` [Example 16.15, 2-(((cyclopropylmethyl)(3-methoxybenzyl)amino)methyl)-7-methoxy-[1,2,4]triazolo[1,5-c]quinazolin-5-amine] yielded a half-maximal inhibitory concentration (IC50) of 3.5 nM. Take `COc1cccc2c1nc(N)n1nc(CN(Cc3cccc4ncccc34)CC3CC3)nc21` [Example 16.16, 2-(((cyclopropylmethyl)(quinolin-5-ylmethyl)amino)methyl)-7-methoxy-[1,2,4]triazolo[1,5-c]quinazolin-5-amine]: the IC50 was determined as 3.5 nM. Turning to `COc1cccc2c1nc(N)n1nc(CN(Cc3ccc(F)c(F)c3F)CC3CC3)nc21` [Example 16.17, 2-(((cyclopropylmethyl)(2,3,4-trifluorobenzyl)amino)methyl)-7-methoxy-[1,2,4]triazolo[1,5-c]quinazolin-5-amine], the IC50 is 4.8 nM.

On to `COc1cccc2c1nc(N)n1nc(CN(CC(F)F)CC3CC3)nc21` [Example 17.1, 2-(((cyclopropylmethyl)(2,2-difluoroethyl)amino)methyl)-7-methoxy-[1,2,4]triazolo[1,5-c]quinazolin-5-amine], for which the IC50 is 2.5 nM.

As to `COc1cccc2c1nc(N)n1nc(CN(Cc3ccc(C(F)(F)F)cc3)C[C@@H]3CO3)nc21` [Example 18.1, (R)-7-methoxy-2-(((oxiran-2-ylmethyl)(4-(trifluoromethyl)benzyl)amino)methyl)-[1,2,4]triazolo[1,5-c]quinazolin-5-amine], the IC50 is 20.2 nM. With `COc1cccc2c1nc(N)n1nc(CN(Cc3ccc(C(F)(F)F)cc3)S(C)(=O)=O)nc21` [Example 19.2, N-((5-amino-7-methoxy-[1,2,4]triazolo[1,5-c]quinazolin-2-yl)methyl)-N-(4-(trifluoromethyl)benzyl)methanesulfonamide] the figure was 7.5 nM.

`COc1cccc2c1nc(N)n1nc(CN(Cc3ccc(C(F)(F)F)cc3)S(=O)(=O)C(F)(F)F)nc21` [Example 19.3, N-((5-amino-7-methoxy-[1,2,4]triazolo[1,5-c]quinazolin-2-yl)methyl)-1,1,1-trifluoro-N-(4-(trifluoromethyl)benzyl)methanesulfonamide] came in with a concentration for half-maximal inhibition (IC50) of 115 nM. As for `COc1cccc2c1nc(N)n1nc(CN(Cc3ccc(OC(F)(F)F)cc3)S(=O)(=O)C(F)(F)F)nc21` [Example 19.4, N-((5-amino-7-methoxy-[1,2,4]triazolo[1,5-c]quinazolin-2-yl)methyl)-1,1,1-trifluoro-N-(4-(trifluoromethoxy)benzyl)methanesulfonamide], the figure is 50.4 nM; as for `COc1cccc2c1nc(N)n1nc(CN(Cc3ccc(C(F)(F)F)cc3)S(=O)(=O)C3CC3)nc21` [Example 19.5, N-((5-amino-7-methoxy-[1,2,4]triazolo[1,5-c]quinazolin-2-yl)methyl)-N-(4-(trifluoromethyl)benzyl)cyclopropanesulfonamide], 17.6 nM.

(Values after patent US20230322785A1, “ADENOSINE A2A AND A2B RECEPTOR DUAL ANTAGONISTS FOR IMMUNO-ONCOLOGY” (Merck Sharp & Dohme LLC, priority 2020, published 2023).)
